Experimental data: PubChem BioAssay AID1918941 (Molecular Pharmacology Branch, DTP, NCI, 2023)

Test system: SW 1271 complex spheroids, viability
Assay: Anticancer human tumor SW 1271 cell line growth inhibition [LSD1];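 note: spheroids exposed to agents for 7 days before luminescence read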;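 for viability, T/C: 100% = DMSO vehicle control viability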
Details: for IC50: curve of first compound; for viability, T/C: stronger effect = lower value
Outline: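 Drug combinations with the LSD1 inhibitor iadademstat tested on tumor cells co-cultured as spheroids with endothelial cells and mesenchymal stem cells. Concentrations descended in half-log increments from clinical Cmax or 10 microM.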

[1] = second compound 0.1 µM, first compound 0.0316 µM
[2] = second compound 0.1 µM, first compound 0.1 µM
[3] = second compound 0.1 µM, first compound 0.316 µM
[4] = second compound 0.1 µM, first compound 1 µM
[5] = second compound 0.316 µM, first compound 0.0316 µM
[6] = second compound 0.316 µM, first compound 0.1 µM
[7] = second compound 0.316 µM, first compound 0.316 µM
[8] = second compound 0.316 µM, first compound 1 µM
[9] = second compound 1 µM, first compound 0.0316 µM
[10] = second compound 1 µM, first compound 0.1 µM
[11] = second compound 1 µM, first compound 0.316 µM
[12] = second compound 1 µM, first compound 1 µM
[13] = second compound 3.16 µM, first compound 0.0316 µM
[14] = second compound 3.16 µM, first compound 0.1 µM
[15] = second compound 3.16 µM, first compound 0.316 µM
[16] = second compound 3.16 µM, first compound 1 µM
[17] = second compound 10 µM, first compound 0.0316 µM
[18] = second compound 10 µM, first compound 0.1 µM
[19] = second compound 10 µM, first compound 0.316 µM
[20] = second compound 10 µM, first compound 1 µM
[21] = second compound 0.1 µM, first compound 0.00949 µM
[22] = second compound 0.1 µM, first compound 0.03 µM
[23] = second compound 0.1 µM, first compound 0.0949 µM
[24] = second compound 0.1 µM, first compound 0.3 µM
[25] = second compound 0.316 µM, first compound 0.00949 µM
[26] = second compound 0.316 µM, first compound 0.03 µM
[27] = second compound 0.316 µM, first compound 0.0949 µM
[28] = second compound 0.316 µM, first compound 0.3 µM
[29] = second compound 1 µM, first compound 0.00949 µM
[30] = second compound 1 µM, first compound 0.03 µM
[31] = second compound 1 µM, first compound 0.0949 µM
[32] = second compound 1 µM, first compound 0.3 µM
[33] = second compound 3.16 µM, first compound 0.00949 µM
[34] = second compound 3.16 µM, first compound 0.03 µM
[35] = second compound 3.16 µM, first compound 0.0949 µM
[36] = second compound 3.16 µM, first compound 0.3 µM
[37] = second compound 10 µM, first compound 0.00949 µM
[38] = second compound 10 µM, first compound 0.03 µM
[39] = second compound 10 µM, first compound 0.0949 µM
[40] = second compound 10 µM, first compound 0.3 µM

CC1COCCN1c1cc(C2(S(C)(=N)=O)CC2)nc(-c2ccnc3[nH]ccc23)n1 (stereo not given) + NC1CC1c1ccc(-c2cccc(O)c2)cc1
IC50 (second compound 0.1 µM): 1870 nM | IC50 (second compound 0.316 µM): 2600 nM | IC50 (second compound 1 µM): > 10000 nM | IC50 (second compound 3.16 µM): 1360 nM | IC50 (second compound 10 µM): 954 nM | viability, T/C [1]: 84.8% | viability, T/C [2]: 79.5% | viability, T/C [3]: 65.5% | viability, T/C [4]: 49% | viability, T/C (second compound 0.1 µM, first compound 3.16 µM): 53.7% | viability, T/C (second compound 0.1 µM, first compound 10 µM): 45.6% | viability, T/C [5]: 81.3% | viability, T/C [6]: 82.1% | viability, T/C [7]: 65% | viability, T/C [8]: 57.1% | viability, T/C (second compound 0.316 µM, first compound 3.16 µM): 46% | viability, T/C (second compound 0.316 µM, first compound 10 µM): 49.4% | viability, T/C [9]: 75% | viability, T/C [10]: 95.2% | viability, T/C [11]: 70.1% | viability, T/C [12]: 56.7% | viability, T/C (second compound 1 µM, first compound 3.16 µM): 51.6% | viability, T/C (second compound 1 µM, first compound 10 µM): 47.1% | viability, T/C [13]: 70.2% | viability, T/C [14]: 69.9% | viability, T/C [15]: 72.6% | viability, T/C [16]: 51.7% | viability, T/C (second compound 3.16 µM, first compound 3.16 µM): 46.7% | viability, T/C (second compound 3.16 µM, first compound 10 µM): 43.8% | viability, T/C [17]: 48.1% | viability, T/C [18]: 61.1% | viability, T/C [19]: 59.2% | viability, T/C [20]: 49.7% | viability, T/C (second compound 10 µM, first compound 3.16 µM): 42% | viability, T/C (second compound 10 µM, first compound 10 µM): 46.2%

CCN(c1cc(-c2ccc(CN3CCOCC3)cc2)cc(C(=O)NCc2c(C)cc(C)[nH]c2=O)c1C)C1CCOCC1 + NC1CC1c1ccc(-c2cccc(O)c2)cc1
IC50 (second compound 0.1 µM): > 3000 nM | IC50 (second compound 0.316 µM): > 3000 nM | IC50 (second compound 1 µM): > 3000 nM | IC50 (second compound 3.16 µM): > 3000 nM | IC50 (second compound 10 µM): > 3000 nM | viability, T/C [21]: 83.2% | viability, T/C [22]: 82.9% | viability, T/C [23]: 86% | viability, T/C [24]: 72.4% | viability, T/C (second compound 0.1 µM, first compound 0.949 µM): 68.2% | viability, T/C (second compound 0.1 µM, first compound 3 µM): 60% | viability, T/C [25]: 83.9% | viability, T/C [26]: 82.2% | viability, T/C [27]: 74.6% | viability, T/C [28]: 72.4% | viability, T/C (second compound 0.316 µM, first compound 0.949 µM): 71.3% | viability, T/C (second compound 0.316 µM, first compound 3 µM): 57.3% | viability, T/C [29]: 82.1% | viability, T/C [30]: 78.4% | viability, T/C [31]: 83.8% | viability, T/C [32]: 64.8% | viability, T/C (second compound 1 µM, first compound 0.949 µM): 59.4% | viability, T/C (second compound 1 µM, first compound 3 µM): 56.3% | viability, T/C [33]: 80.6% | viability, T/C [34]: 85.1% | viability, T/C [35]: 78.1% | viability, T/C [36]: 65.7% | viability, T/C (second compound 3.16 µM, first compound 0.949 µM): 63.7% | viability, T/C (second compound 3.16 µM, first compound 3 µM): 56.2% | viability, T/C [37]: 66.9% | viability, T/C [38]: 66.8% | viability, T/C [39]: 64.8% | viability, T/C [40]: 51.8% | viability, T/C (second compound 10 µM, first compound 0.949 µM): 58.7% | viability, T/C (second compound 10 µM, first compound 3 µM): 58.2%

Nc1ncn(C2CC(O)C(CO)S2)c(=O)n1 (stereo not given) + NC1CC1c1ccc(-c2cccc(O)c2)cc1
IC50 (second compound 0.1 µM): > 300 nM | IC50 (second compound 0.316 µM): > 300 nM | IC50 (second compound 1 µM): > 300 nM | IC50 (second compound 3.16 µM): > 300 nM | IC50 (second compound 10 µM): > 300 nM | viability, T/C (second compound 0.1 µM, first compound 0.000949 µM): 90.1% | viability, T/C (second compound 0.1 µM, first compound 0.003 µM): 91.7% | viability, T/C [21]: 82% | viability, T/C [22]: 76.2% | viability, T/C [23]: 82% | viability, T/C [24]: 63% | viability, T/C (second compound 0.316 µM, first compound 0.000949 µM): 79.2% | viability, T/C (second compound 0.316 µM, first compound 0.003 µM): 83.6% | viability, T/C [25]: 86.3% | viability, T/C [26]: 67.9% | viability, T/C [27]: 53.5% | viability, T/C [28]: 57.8% | viability, T/C (second compound 1 µM, first compound 0.000949 µM): 85.3% | viability, T/C (second compound 1 µM, first compound 0.003 µM): 73.3% | viability, T/C [29]: 75.6% | viability, T/C [30]: 65.3% | viability, T/C [31]: 64.4% | viability, T/C [32]: 67.5% | viability, T/C (second compound 3.16 µM, first compound 0.000949 µM): 70.5% | viability, T/C (second compound 3.16 µM, first compound 0.003 µM): 79.4% | viability, T/C [33]: 79.1% | viability, T/C [34]: 62.3% | viability, T/C [35]: 60.8% | viability, T/C [36]: 58.8% | viability, T/C (second compound 10 µM, first compound 0.000949 µM): 66.4% | viability, T/C (second compound 10 µM, first compound 0.003 µM): 65.1% | viability, T/C [37]: 60.9% | viability, T/C [38]: 66.5% | viability, T/C [39]: 62.7% | viability, T/C [40]: 58.9%

O=C(C=Cn1cnc(-c2cc(C(F)(F)F)cc(C(F)(F)F)c2)n1)NNc1cnccn1 + NC1CC1c1ccc(-c2cccc(O)c2)cc1
IC50 (second compound 0.1 µM): 140 nM | IC50 (second compound 0.316 µM): 148 nM | IC50 (second compound 1 µM): 88.9 nM | IC50 (second compound 3.16 µM): 171 nM | IC50 (second compound 10 µM): 195 nM | viability, T/C (second compound 0.1 µM, first compound 0.00316 µM): 79% | viability, T/C (second compound 0.1 µM, first compound 0.01 µM): 70.9% | viability, T/C [1]: 66.7% | viability, T/C [2]: 49.3% | viability, T/C [3]: 45.3% | viability, T/C [4]: 21.6% | viability, T/C (second compound 0.316 µM, first compound 0.00316 µM): 68.7% | viability, T/C (second compound 0.316 µM, first compound 0.01 µM): 74.1% | viability, T/C [5]: 64.8% | viability, T/C [6]: 51.7% | viability, T/C [7]: 42% | viability, T/C [8]: 19.4% | viability, T/C (second compound 1 µM, first compound 0.00316 µM): 73% | viability, T/C (second compound 1 µM, first compound 0.01 µM): 64.1% | viability, T/C [9]: 69.5% | viability, T/C [10]: 41.3% | viability, T/C [11]: 39.7% | viability, T/C [12]: 23.7% | viability, T/C (second compound 3.16 µM, first compound 0.00316 µM): 73.9% | viability, T/C (second compound 3.16 µM, first compound 0.01 µM): 77.3% | viability, T/C [13]: 76.1% | viability, T/C [14]: 53.3% | viability, T/C [15]: 43.1% | viability, T/C [16]: 23.4% | viability, T/C (second compound 10 µM, first compound 0.00316 µM): 71.2% | viability, T/C (second compound 10 µM, first compound 0.01 µM): 73.6% | viability, T/C [17]: 68.1% | viability, T/C [18]: 55.3% | viability, T/C [19]: 45.8% | viability, T/C [20]: 28%
